This assay relates to P388 leukemia ip, CD2F1 mice, survival T/C. Briefly: NCI In Vivo Anticancer Drug Screen. Data for tumor model P388 Leukemia (intraperitoneal) in CD2F1 (CDF1) mice. As to conditions: endpoint: median survival time, higher = longer survival. The procedure, abridged:
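Mice carrying the transplanted tumor received test compound or vehicle. Survival was recorded in each group, and the value is the treated-group measurement divided by that of the vehicle-treated control group.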

Where [1] appears, read: dose: 100.0 mg/kg/injection, schedule: Q04DX003 (ip), vehicle: saline.
Where [2] appears, read: dose: 200.0 mg/kg/injection, schedule: Q04DX003 (ip), vehicle: saline.
The mark [3] stands for this setting: dose: 100.0 mg/kg/injection, schedule: Q04DX002 (ip), vehicle: saline.
Setting [4] is: dose: 200.0 mg/kg/injection, schedule: Q04DX002 (ip), vehicle: saline.
Setting [5] is: dose: 400.0 mg/kg/injection, schedule: Q04DX002 (ip), vehicle: saline.
Setting [6] is: dose: 50.0 mg/kg/injection, schedule: Q01DX005 (ip), vehicle: Klucel (hydroxypropylcellulose) (HPC).
The mark [7] stands for this setting: dose: 100.0 mg/kg/injection, schedule: Q01DX005 (ip), vehicle: Klucel (hydroxypropylcellulose) (HPC).
The mark [8] stands for this setting: dose: 200.0 mg/kg/injection, schedule: Q01DX005 (ip), vehicle: Klucel (hydroxypropylcellulose) (HPC).
Setting [9] is: dose: 50.0 mg/kg/injection, schedule: Q01DX005 (ip), vehicle: saline.
Where [10] appears, read: dose: 50.0 mg/kg/injection, schedule: Q01DX005 (ip), vehicle: saline with Tween-80.
[11] abbreviates: dose: 100.0 mg/kg/injection, schedule: Q01DX005 (ip), vehicle: saline with Tween-80.
Setting [12] is: dose: 200.0 mg/kg/injection, schedule: Q01DX005 (ip), vehicle: saline with Tween-80.
[13] abbreviates: dose: 60.0 mg/kg/injection, schedule: Q01DX005 (ip), vehicle: saline with Tween-80.
The mark [14] stands for this setting: dose: 120.0 mg/kg/injection, schedule: Q01DX005 (ip), vehicle: saline with Tween-80.

“And” between values parts separate entries of the source, which are not always exact repeats. Identical values can stand only once. Toxic doses and inconclusive results are not listed.

With `O=NNc1ncc(Cl)cc1Cl`, the T/C reads like this: (dose: 1.56 mg/kg/injection, schedule: Q01DX009 (ip), vehicle: water) 106 % of control; (dose: 3.12 mg/kg/injection, schedule: Q01DX009 (ip), vehicle: water) 101 % of control; (dose: 6.0 mg/kg/injection, schedule: Q01DX009 (ip), vehicle: water) 118 % of control; (dose: 6.25 mg/kg/injection, schedule: Q01DX009 (ip), vehicle: water) 107 % of control; (dose: 12.5 mg/kg/injection, schedule: Q01DX009 (ip), vehicle: water) 111 % of control and 120 % of control; (dose: 25.0 mg/kg/injection, schedule: Q01DX009 (ip), vehicle: water) 120 % of control.

`O=c1[nH]cnc2cc3c(cc12)nc1n3CCOC1`: the T/C under setting [1] is 109 % of control and the T/C under setting [2] was 105 % of control.

On to `CC12Cc3cn[nH]c3CC1CCC1C2CCC2(C)C1CCC2(C)O` (stereo unspecified), for which the T/C was 98 % of control under setting [3], 100 % of control under setting [4] and 97 % of control under setting [5].

On to `CCCCCCCCCCCCCCCCCC[N+]1([O-])CCCC1`, for which the T/C (dose: 50.0 mg/kg/injection, schedule: Q01DX009 (ip), vehicle: water) was 93 % of control.

For the compound `CC1N(/N=C/c2ccccc2)C(c2ccccc2)C(c2ccccc2)N1/N=C/c1ccccc1` (stereo unspecified), the T/C reads like this: under setting [6], 99 % of control; under setting [7], 98 % of control; under setting [8], 99 % of control.

For the compound `COc1cc2c(cc1Cc1ccc3c(c1)OCO3)OCO2`, the T/C is 94 % of control under setting [6], 92 % of control under setting [7] and 89 % of control under setting [8].

Consider `COc1ccc(C2CC(=O)N(c3nc(C)cc(C)n3)C(=O)C2)cc1`, for which the T/C under setting [1] is 96 % of control; the T/C under setting [2] is 102 % of control; the T/C (dose: 400.0 mg/kg/injection, schedule: Q04DX003 (ip), vehicle: saline) was 100 % of control.

Take `FC(F)(F)COP1(OCC(F)(F)F)(OCC(F)(F)F)SC(C(F)(F)F)=C(C(F)(F)F)S1`: the T/C by setting is: (dose: 50.0 mg/kg/injection, schedule: Q04DX002 (ip), vehicle: saline) 102 % of control and 103 % of control; under setting [3], 99 % of control and 100 % of control (2×); under setting [4], 100 % of control and 107 % of control; under setting [5], 102 % of control and 107 % of control.

For `Nc1cc(S(N)(=O)=O)ccc1SSc1ccc(S(N)(=O)=O)cc1N`, the T/C is 94 % of control (dose: 50.0 mg/kg/injection, schedule: Q01DX009 (ip), vehicle: Klucel (hydroxypropylcellulose) (HPC)); 105 % of control (dose: 50.0 mg/kg/injection, schedule: Q01DX009 (ip), vehicle: saline with Tween-80); 112 % of control (dose: 100.0 mg/kg/injection, schedule: Q01DX009 (ip), vehicle: Klucel (hydroxypropylcellulose) (HPC)); 109 % of control (dose: 100.0 mg/kg/injection, schedule: Q01DX009 (ip), vehicle: saline with Tween-80); 112 % of control (dose: 200.0 mg/kg/injection, schedule: Q01DX009 (ip), vehicle: Klucel (hydroxypropylcellulose) (HPC)); 110 % of control (dose: 200.0 mg/kg/injection, schedule: Q01DX009 (ip), vehicle: saline with Tween-80). The T/C was 121 % of control (dose: 400.0 mg/kg/injection, schedule: Q01DX009 (ip), vehicle: Klucel (hydroxypropylcellulose) (HPC)) and 117 % of control (dose: 400.0 mg/kg/injection, schedule: Q01DX009 (ip), vehicle: saline with Tween-80).

As to `CCN(CC)CC(C)(C)C(=O)/C=C/c1ccc(Cl)c(Cl)c1`, the T/C by setting is: (dose: 7.5 mg/kg/injection, schedule: Q01DX005 (ip), vehicle: saline) 102 % of control; (dose: 15.0 mg/kg/injection, schedule: Q01DX005 (ip), vehicle: saline) 101 % of control; (dose: 30.0 mg/kg/injection, schedule: Q01DX005 (ip), vehicle: saline) 112 % of control; (dose: 60.0 mg/kg/injection, schedule: Q01DX005 (ip), vehicle: saline) 110 % of control; (dose: 120.0 mg/kg/injection, schedule: Q01DX005 (ip), vehicle: saline) 118 % of control; (dose: 240.0 mg/kg/injection, schedule: Q01DX005 (ip), vehicle: saline) 109 % of control.

`BrCc1cccnc1`: the T/C (dose: 12.5 mg/kg/injection, schedule: Q01DX005 (ip), vehicle: saline) is 103 % of control; the T/C (dose: 25.0 mg/kg/injection, schedule: Q01DX005 (ip), vehicle: saline) is 103 % of control; the T/C under setting [9] is 103 % of control and 110 % of control.

On to `O=C(Nc1ccccc1)Nc1ccc2c(c1)C(=O)CCCC2`, for which the T/C is, setting by setting: under setting [10], 96 % of control; under setting [11], 93 % of control; under setting [12], 94 % of control.

Consider `COC1C(O)CC(OC2CC(OC3CC(O[C@@H]4C(=O)c5c(cc6cc(OC7CC(OC8CC(O)C(O)C(C)O8)C(O)C(C)O7)c(C)c(O)c6c5O)C[C@H]4[C@H](OC)C(=O)[C@@H](O)[C@@H](C)O)OC(C)C3O)OC(C)C2O)OC1C` (stereo partly specified), for which the T/C is 121 % of control (dose: 375.0 micrograms/kg/injection, schedule: Q01DX009 (ip), vehicle: saline) and 170 % of control (dose: 1500.0 micrograms/kg/injection, schedule: Q01DX009 (ip), vehicle: saline).

As to `Nc1nc2cc3[nH]ncc3cc2c(=O)[nH]1`, the T/C by setting is: (dose: 12.5 mg/kg/injection, schedule: Q01DX005 (ip), vehicle: saline with Tween-80) 98 % of control; (dose: 25.0 mg/kg/injection, schedule: Q01DX005 (ip), vehicle: saline with Tween-80) 91 % of control; under setting [10], 94 % of control and 97 % of control; under setting [11], 101 % of control; under setting [12], 102 % of control.

As to `[N-]=[N+]=Nc1ccnc2ccc(C3CCCCC3)cc12`, the T/C runs as follows: under setting [13], 100 % of control; under setting [14], 92 % of control; (dose: 240.0 mg/kg/injection, schedule: Q01DX005 (ip), vehicle: saline with Tween-80) 100 % of control.

For `CC(=O)OCCOCNC(=S)N/N=C/c1ccccn1`, under setting [13], the T/C was 115 % of control.

Regarding `CC1CCC2C(OC(=O)C23CO3)C2(C)C(=O)C=CC12` (stereo unspecified), the T/C by setting is: (dose: 2.5 mg/kg/injection, schedule: Q01DX009 (ip), vehicle: saline + alcohol) 86 % of control; (dose: 5.0 mg/kg/injection, schedule: Q01DX009 (ip), vehicle: saline + alcohol) 100 % of control; (dose: 10.0 mg/kg/injection, schedule: Q01DX009 (ip), vehicle: saline + alcohol) 101 % of control; (dose: 20.0 mg/kg/injection, schedule: Q01DX009 (ip), vehicle: saline + alcohol) 99 % of control.

For `COc1ccc(Cc2nnc(NN)[nH]c2=O)cc1OC`, the T/C under setting [13] is 101 % of control and the T/C under setting [14] is 97 % of control.

Regarding `C=C(C)CC(N)C(=O)O` (stereo unspecified), the T/C is 103 % of control under setting [9]; 100 % of control (dose: 100.0 mg/kg/injection, schedule: Q01DX005 (ip), vehicle: saline); 99 % of control (dose: 200.0 mg/kg/injection, schedule: Q01DX005 (ip), vehicle: saline).

With `O=S(=O)(O)C(O)c1ccc(Cl)cc1Cl` (stereo unspecified), the T/C (dose: 50.0 mg/kg/injection, schedule: Q01DX001 (ip), vehicle: Klucel (hydroxypropylcellulose) (HPC)) is 100 % of control; the T/C (dose: 100.0 mg/kg/injection, schedule: Q01DX001 (ip), vehicle: Klucel (hydroxypropylcellulose) (HPC)) is 100 % of control; the T/C (dose: 200.0 mg/kg/injection, schedule: Q01DX001 (ip), vehicle: Klucel (hydroxypropylcellulose) (HPC)) is 116 % of control.

Consider `OC1CC2c3ccccc3C1c1ccccc12` (stereo unspecified), for which the T/C reads like this: under setting [6], 95 % of control; under setting [7], 99 % of control; under setting [8], 100 % of control.

These data come from PubChem BioAssay AID330 (DTP/NCI, 2004).
